The series is described as follows: Human HepG2 cell viability assay in 384 well format. Further details: dose 125 nL, time 70.5 hour; concentration not given beside the values. The note with it: HepG2 cells, read-out: Inhibition. The class given is toxicity, cell-based.

The record followed here is ChEMBL document CHEMBL3507680, “University of Dundee, Gates Library screen for HepG2 cell viability”.

Regarding `CCc1nccc(CN2CCC(CNC(=O)c3occc3C)C2)n1` (centres undefined), the cytotoxicity at 70.5 h is -5.76%.
For `CCn1nc(C)cc1S(=O)(=O)N1CCC2(CC(=O)NC2=O)C1` (centres undefined) the value was -5.01%; for `CCc1cc(CN(Cc2cccnc2)C2CN3CCC2CC3)on1` (centres undefined), 24.6%; for `CCn1cnnc1CN(C)c1nccc(C2CCCC2)n1`, -7.13%.
The same measure for `Cc1nc(CCCNC(=O)c2coc(CN3CCOCC3)c2)sc1C`: -0.625%; for `CC(=O)c1cc(CN2C[C@@H](CN3CCC(O)CC3)[C@@H](CO)C2)n(C)c1`: 0.0676%.
`O=C(c1cc(COc2ccc3c(c2)OCO3)[nH]n1)N1CCCO1`: the cytotoxicity at 70.5 h is -2.52%.
Take `Cc1ccccc1OC1CCN(C(=O)CNC(=O)N(C)C)CC1`: the cytotoxicity at 70.5 h was -15.2%.
For the molecule `O=C1NCCCc2[nH]c(-c3nc(C4CC4)no3)nc21`, the cytotoxicity at 70.5 h is -3.92%.
`COc1nc2ccccc2cc1CN1CCC(CNS(C)(=O)=O)C1` (centres undefined): the cytotoxicity at 70.5 h came out at 0.512%.
Regarding `CC(C)CN1CCCn2nc(CNC(=O)Cc3cccc(O)c3)cc2C1`, the cytotoxicity at 70.5 h was -9.37%.
On to `Cc1cc2[nH]cc(C(=O)N3CCCCC3c3ccc(F)cc3)c(=O)n2n1` (centres undefined), for which the cytotoxicity at 70.5 h was -3.07%.
With `CCc1ccc(C2c3nc[nH]c3CCN2Cc2nccn2CC)nc1` (centres undefined), the cytotoxicity at 70.5 h was determined as 33.1%.
Consider `COCCc1noc(CN2C(=O)OC[C@@H]2C(C)C)n1`, for which the cytotoxicity at 70.5 h came out at 2.12%.
The same measure for `CCCc1cc(=O)[nH]c(-c2cccc(CN3CCN4CCCC4C3)c2)n1` (centres undefined): -6.97%; for `O=C(NCC(F)F)c1ccc(S(=O)(=O)NCCc2cn[nH]c2)cc1`: -8.61%.
For `COc1ccccc1N1CC(NC(=O)c2cc(C(C)C)nn2C)CC1=O` (centres undefined) the value was 12.6%; for `Cc1ccccc1N1CCN(C(=O)CCc2nncn2C)C(C)C1` (centres undefined), -1.67%.
The same measure for `CCN(CCc1nc2cc(C)ccc2[nH]1)C(=O)[C@@H](N)COC`: 10%.
Take `NCC(=O)N1CCCCC1c1ccc(F)cc1` (centres undefined): the cytotoxicity at 70.5 h was -2.07%.
In the case of `NCCn1cc(C(=O)N2CCNC(=O)C2c2cccc(F)c2)nn1` (centres undefined), the cytotoxicity at 70.5 h was -11.9%.
The same measure for `CCc1[nH]c2c(CNc3cncc(C(=O)N(C)C)n3)cc(C)cc2c1C`: 27.8%; for `CNc1nc(C(=O)N2CCN(c3cc(C)nc(C)c3)CC2)cs1`: -9.69%.
The same measure for `COc1ccc([C@@H]2CN(C(=O)Cc3cccs3)C[C@H]2NC(C)=O)cc1`: -4.36%; for `NC1CCN(C2CCN(c3ccc(-c4ccco4)cc3)CC2)CC1`: -12%.
Regarding `O=C(NCc1cc2ccccc2s1)c1cc(CN2CCCC(O)C2)on1` (centres undefined), the cytotoxicity at 70.5 h was -3.19%.
For the molecule `O=C(CCC(F)(F)F)N1CCCC(CO)(CC2CC2)C1` (centres undefined), the cytotoxicity at 70.5 h is -8.1%.
Turning to `Cc1ccc(-c2ccnc(NC(C)c3n[nH]c(C)n3)n2)c(C)n1` (centres undefined), the cytotoxicity at 70.5 h is -9.42%.
The same measure for `O=C1NC(C(=O)NCc2cccnc2Oc2ccc(F)cc2F)CO1` (centres undefined): -18.3%; for `CCC(CC)CN1CCCn2nc(CNC(=O)COC)cc2C1`: -10.4%; for `O=C(Nc1ccccc1)c1cc2n(n1)CCCN(C(=O)c1ccc[nH]1)C2`: 14.9%.
Turning to `O=C(NCCc1c[nH]cn1)c1ccc(S(=O)(=O)NC2CCOC2)cc1` (centres undefined), the cytotoxicity at 70.5 h was -0.712%.
In the case of `CC(C)(C)n1cc(C2=CCN(CCc3ccccn3)CC2)cn1`, the cytotoxicity at 70.5 h was -5.94%.
With `CN(Cc1noc2c1CCCC2)C(=O)CN1C(=O)COc2ccccc21`, the cytotoxicity at 70.5 h was -6.93%.
For the molecule `Cc1cc2cc(C(=O)N3CCN(CCO)[C@@H]4CS(=O)(=O)C[C@@H]43)ccc2o1`, the cytotoxicity at 70.5 h turned out to be 19.6%.
The same measure for `OCCNc1cc(-c2nccnc2N2CCCC2)c2cc[nH]c2n1`: 34%.
Take `CN(c1ncccc1CNCc1ncc[nH]1)C1CCCCC1`: the cytotoxicity at 70.5 h is -13.1%.
With `Cc1ccc(C(C(=O)N2CC(c3ccccn3)C2)N(C)C)cc1` (centres undefined), the cytotoxicity at 70.5 h stood at 13%.
As to `COCCN1C(=O)[C@H]2CC[C@@H]1CN(C(=O)Cc1ccc(O)c(Cl)c1)C2`, the cytotoxicity at 70.5 h worked out at 16.7%.
For the molecule `Cc1nn2c(NCC(=O)NC3CC3)cc(-c3ccccc3)nc2c1C`, the cytotoxicity at 70.5 h was -2.36%.
Turning to `O=C(c1cc[nH]n1)N1CCc2ncnc(N3CCSCC3)c2CC1`, the cytotoxicity at 70.5 h stood at 10.4%.
For `Cc1ccc(Cl)c(C(C(=O)O)N(C)Cc2cnn(C)c2)c1` (centres undefined) the value was 5.66%.
Turning to `Cc1ccccc1-n1cc(C2=CCN(CCn3cc[nH]c3=O)CC2)cn1`, the cytotoxicity at 70.5 h is -6.71%.
Take `Cn1ccc2c(-c3ccc(NC4CC4)nn3)ccnc21`: the cytotoxicity at 70.5 h is -5.5%.
For `c1ccc(Oc2ncccc2CNCc2ccccn2)cc1`, the cytotoxicity at 70.5 h was -4.5%.
For `CSc1ccc(-n2ccnc2-c2cc3n(n2)CCNC3)cc1`, the cytotoxicity at 70.5 h was 25.5%.
In the case of `Cc1nn(C)cc1Cn1c(=O)cnc2ccccc21`, the cytotoxicity at 70.5 h is -19.1%.
The same measure for `CN(CCO)Cc1nnc(C2CCN(C(=O)c3ccccn3)CC2)n1C`: 1.55%.
Regarding `CN(C)CCNc1cc(-c2ccc[nH]c2=O)c2cc[nH]c2n1`, the cytotoxicity at 70.5 h is -5.94%.
On to `CO[C@H]1CN(C(C)C)C[C@@H]1NC(=O)c1cc(-c2ccccc2F)n[nH]1`, for which the cytotoxicity at 70.5 h is -6.15%.
Turning to `COc1cc(C)sc1C(=O)N1CCCCC1c1ccccn1` (centres undefined), the cytotoxicity at 70.5 h is -16.5%.
For the molecule `O=C(c1cccnc1N1CCOC(c2ccc(Cl)cc2)C1)N1CCCC1` (centres undefined), the cytotoxicity at 70.5 h was -5.24%.
For the molecule `CCc1cnc(C)nc1NCC(O)CN1CCCCCC1` (centres undefined), the cytotoxicity at 70.5 h was -4.26%.
Consider `O=C(c1cc(C2CC2)no1)N1C[C@H]2CC[C@@H]1CN(Cc1ccccn1)C2`, for which the cytotoxicity at 70.5 h was -14.9%.
The same measure for `CC(=O)c1ccc(N2CCC3(CCC(=O)N(C4CC4)C3)CC2)nc1`: -1.87%.
As to `O=C1CC(c2ccc(CO)o2)c2cnn(Cc3ccco3)c2N1` (centres undefined), the cytotoxicity at 70.5 h was -7.94%.
In the case of `Cc1nc(C)n(CCNC(=O)C(C)n2ccnc2C(C)C)n1` (centres undefined), the cytotoxicity at 70.5 h is -0.492%.
As to `CCN(CC)C(=O)[C@@H]1C[C@H](NC(=O)c2cccn2C(C)C)CN1C`, the cytotoxicity at 70.5 h was -9.19%.
As for `CCC(Nc1nccc(C2CCCC2)n1)c1ccccn1` (centres undefined), the cytotoxicity at 70.5 h was -3.14%.
On to `O[C@]12CCNC[C@H]1CN(c1ncccc1Cl)CC2`, for which the cytotoxicity at 70.5 h was -16.6%.
Turning to `CSC(C)C(=O)N1CCC(Oc2cc(C)ccc2F)(C(=O)O)CC1` (centres undefined), the cytotoxicity at 70.5 h was -7.76%.
For `Cc1nc(C)n(CC(C)C(=O)N2CCCN(C3CCCC3)CC2)n1` (centres undefined), the cytotoxicity at 70.5 h is -6.07%.
Regarding `O=C(c1cccc(Cl)c1F)N1CCOC2(CNCCOC2)C1` (centres undefined), the cytotoxicity at 70.5 h came out at 32.2%.
With `Cc1ccc2cc(CN(C)Cc3nccs3)c(=O)[nH]c2c1`, the cytotoxicity at 70.5 h was -11.3%.
The same measure for `FC(F)(F)CCc1ncnn1-c1ccc2c(c1)OCO2`: -7.77%; for `Cc1[nH]c(=O)c(C#N)cc1C(=O)N1C[C@@H](CN2CCCC2)C[C@H](CO)C1`: -7.24%.
For `COc1ccc(CCN2CCCC(CN(C)Cc3ccc(C)o3)C2)cc1` (centres undefined) the value was -5.02%; for `Cc1ccc2c(ccn2CCC(=O)O)c1`, -4.94%; for `Cc1cc(C(=O)N2CCC(c3nccn3Cc3ccncc3)CC2)no1`, 1.65%.
For the molecule `CS(=O)(=O)N1C[C@@H]2CC[C@H](C1)N(Cc1cscn1)C2=O`, the cytotoxicity at 70.5 h is -11.4%.
With `Cc1ccccc1N1CCN(C(=O)c2ccc[nH]2)C(C)C1` (centres undefined), the cytotoxicity at 70.5 h was -2.71%.
Take `CCCn1nccc1C(=O)N1CCCN(CCCc2ccccc2)CC1`: the cytotoxicity at 70.5 h is -7.2%.
Consider `COc1ccc(C(=O)C2CCCN(Cc3ccc(C)o3)C2)c(OC)c1` (centres undefined), for which the cytotoxicity at 70.5 h was -4.07%.
The same measure for `O=C(c1cc(COc2ccc3c(c2)OCO3)[nH]n1)N1CC=CC1CO` (centres undefined): -8.31%; for `Cc1cnccc1N1CCCN(C(=O)CCCc2cn[nH]c2)CC1`: 2.95%.
As for `Cc1nccnc1N1CCC2(CCCN(C3CCOCC3)C2=O)C1` (centres undefined), the cytotoxicity at 70.5 h turned out to be 7.43%.
As to `COc1cccc(N2CCN(Cc3ccc(NC(C)=O)cc3)CC2=O)c1`, the cytotoxicity at 70.5 h was 9.59%.
Turning to `Cc1c[nH]c(CN(C)C(=O)c2cccc(CCC(C)(C)O)c2)n1`, the cytotoxicity at 70.5 h is -5.47%.
For `O=C(CSCC1CC1)N1CCCC(c2nccn2Cc2ccncc2)C1` (centres undefined), the cytotoxicity at 70.5 h was -9.73%.
Consider `Cc1scc(C(=O)N2CCC3(CC(=O)NC3=O)C2)c1-c1ccccc1` (centres undefined), for which the cytotoxicity at 70.5 h is -11%.
With `Cc1cccnc1CNCC1(O)CCCN(Cc2ccc(F)cc2)C1=O` (centres undefined), the cytotoxicity at 70.5 h came out at 23.1%.
For the molecule `Cc1c(CN2CCOCC2)c(O)n(CCO)c(=O)c1C#N`, the cytotoxicity at 70.5 h was found to be 41%.
`Cc1nn(CC(=O)n2cccn2)c(C)c1I`: the cytotoxicity at 70.5 h was 15.6%.
Turning to `CCc1noc(-c2cccc(C(=O)O)c2)n1`, the cytotoxicity at 70.5 h was found to be 23.7%.
Turning to `Cc1cc(SCC(=O)O)nc2nn(CC(F)F)c(C)c12`, the cytotoxicity at 70.5 h was -1.44%.
`CCSc1ncc(Cl)c(C(=O)NC(CCSC)C(=O)O)n1` (centres undefined): the cytotoxicity at 70.5 h was -7.9%.
As for `CSc1ncc(Cl)c(C(=O)NC(Cc2ccccc2)C(=O)O)n1` (centres undefined), the cytotoxicity at 70.5 h is 15%.
As for `N#CCCn1nc(C(F)(F)F)c2c1CCCC2`, the cytotoxicity at 70.5 h is -6.63%.
For the molecule `COc1ccc(-c2cc(N)on2)cc1`, the cytotoxicity at 70.5 h amounted to 13.8%.
As to `CC(C)c1cc(COCCC(=O)O)no1`, the cytotoxicity at 70.5 h was -6.18%.
Take `Cc1c(NC(=O)c2noc3c2CCCC3)cnn1C`: the cytotoxicity at 70.5 h stood at 16.1%.
In the case of `CCC(NC(=O)c1nn(C)cc1C(=O)O)c1ccccc1` (centres undefined), the cytotoxicity at 70.5 h was -15.2%.
Take `CCC(NC(=O)c1nn(C)cc1C(=O)O)c1ccc(C)cc1` (centres undefined): the cytotoxicity at 70.5 h was -5.71%.
On to `CC1=C(C#N)C(=O)NC(=O)/C1=C\c1c(C)nn(-c2ccc(Cl)cc2)c1O`, for which the cytotoxicity at 70.5 h was -6.07%.
For the molecule `COc1ccc(N(c2ccc(C)cc2)c2ccc(C(=O)O)s2)cc1`, the cytotoxicity at 70.5 h was -0.995%.
Turning to `Clc1ccc(C2NCCc3cc4c(cc32)OCCO4)cc1` (centres undefined), the cytotoxicity at 70.5 h was determined as 32.9%.
With `CCc1ccc(C2NCCc3cc4c(cc32)OCCO4)cc1` (centres undefined), the cytotoxicity at 70.5 h is 8.93%.
Take `CNCc1cc(F)ccc1Oc1ccc(F)cc1`: the cytotoxicity at 70.5 h amounted to 2.53%.
On to `CNCc1cc(F)ccc1Oc1ccc(Cl)cc1`, for which the cytotoxicity at 70.5 h stood at 2.13%.
